The record followed here is article PMC9114170, “Investigation of the Role of Hydrophobic Amino Acids on the Structure-Activity Relationship in the Antimicrobial Venom Peptide Ponericin L1” (The Journal of membrane biology, 2021).

Ends that are not written are not given here.

In data set [1] the test system is E. coli D31 inner membrane. As to the kind of experiment: E. coli inner membrane permeabilization (ONPG / β-galactosidase). It counts as cell-based, Escherichia coli. The note with it: E. coli D31, ONPG hydrolysis, absorbance 420 nm, up to 90 minutes; average of three replicates. The procedure:
A single colony of E.coli D31 was inoculated into LB broth and placed in a shaking incubator and set to 225 rpm at 37 C for ~ 18 hours. A 1:250 dilution was made using the overnight culture into fresh LB broth. To induce the expression the expression of β-galactosidase, a final concentration of 100mM of IPTG was introduced. This dilution plus the IPTG was placed back into the shaking incubator for about 2 hours until an OD600 of 0.2-0.4 was achieved.
A 96 well plate was prepared with the following solutions in order: 10 μL of each peptide variant 2-fold serially diluted down the plate with the exception of the final row (used as a negative control 10 μL of 0.01% acetic acid), 56 μL Z-buffer (60mM Na2HPO4, 40mM NaH2PO4, 10mM KCl, 1mM MgSO4, 50mM β-mercaptoethanol pH 7), 19 μL of the E. coli culture, and 15 μL of 4 mg/ml ONPG that was prepared in Z-buffer added immediately before the assay began. Absorbance measurements wer taken at 420 nm every 5 minutes for a total run time of 90 minutes. […]
As the mechanism of action of the L1 venom peptide is likely a membrane disruptive mechanism, the effect of the hydrophobic substitutions on membrane permeabilization was investigated using E.coli and ovine red blood cells (RBCs). […] Similarly, the permeabilization of the E. coli inner membrane was assessed using a cytoplasmic enzyme, β-galactosidase, and a chromogenic substrate, ONPG. […]

Data set [2] is described as follows: Acrylamide quenching of Trp fluorescence in absence and presence of lipid vesicles. The data set is classed as physicochemical. The note with it: 2 μM peptide in PBS pH 7.0, λex 295 nm, λem 340, average of three replicates ± SD; for Acrylamide quenching Ksv, PCPG: 3:1 DOPC:DOPG vesicles; for Acrylamide quenching Ksv, PCPG / Acrylamide quenching Ksv, PEPG / Acrylamide quenching Ksv, PC / Acrylamide quenching Ksv, PC/Chol: 250 μM lipid; for Acrylamide quenching Ksv, PEPG: 3:1 POPE:DOPG vesicles; for Acrylamide quenching Ksv, PC: DOPC vesicles; for Acrylamide quenching Ksv, PC/Chol: DOPC:Cholesterol vesicles; for Acrylamide quenching Ksv, PBS: no lipid vesicles. The procedure: To form small unilamellar vesicles (SUVs) sonication or ethanol dilution methods were implemented ([Caputo & London, 2019]). In all cases, lipid vesicle preparation was the same. Depending on the lipid composition, appropriate volumes of lipids in chloroform were mixed in a glass tube and then allowed to dry under N2 gas for 15 minutes. The lipid films were then placed in a vacuum desiccator and allowed to dry further under a vacuum for 1 hour. For vesicles formed through ethanol dilution methods, 10 μL of pure ethanol was added to the film, and then vortex until the dissipation of the film. While continuing to vortex, the appropriate amount of PBS was added. For vesicles formed using the method of sonication, PBS was added directly to the tube while being vortexed to create multilamellar vesicles (MLVs). The MLV suspension was covered with parafilm and then placed in a high-powered bath sonicator (Avanti Lipids) and subjected to sonication for 20 minutes to create SUVs.
Acrylamide quenching was monitored by titration of samples with 10 μL aliquots of 4M acrylamide titrated into peptide samples prepared as described above. These samples contained either or [0.25] mM total lipid. After each addition of acrylamide, Trp fluorescence intensity was measured using λex = 295 nm and λem = 340. Corrections to the emission intensity were made for background subtraction, dilutions, and inner filter effects in the excitation path as described previously. The same method to calculate Ksv was used as above.
In order to gain more insight into the bilayer interactions, fluorescence quenching approaches were utilized. The peptides were exposed to the aqueous quencher acrylamide in solution or when bound to vesicles. […] Thus, peptide Trp exposure to the aqueous milieu can be gauged by the extent of quenching by acrylamide. Stern-Volmer quenching plots were created to analyze the data and Ksv (slopes of a linear fit to the data) are shown in Figure 4 and Table 2. […] In the case of L1L and L1I, there was a significant reduction in quenching between the solution (free) state of the peptide and when bound to anionic vesicles, but a much smaller reduction if any when interacting with zwitterionic vesicles. This is consistent with a more deeply buried Trp in anionic bilayers.

In data set [3] the test system is Sheep red blood cells (RBCs). In words: Hemolysis. The data set is classed as cell-based. The note with it: ovine RBCs, 1 hour at 37 C, up to 15μM peptide, absorbance 415 nm, normalised to Triton X-100; average of three replicates. The protocol: Hemolysis on Sheep red blood cells (RBCs) was used to quantify the destabilization of membranes by leakage of hemoglobin. Sheep blood was obtained through Hemostat Laboratories and stored at 2 – 8 C. A 7 mL aliquot of whole sheep blood was mixed with 7 mL of sterile PBS at pH 7.4. The solution was sedimented via centrifugation for 7 minutes at 2500 rpm. Supernatant was removed and the pellet was resuspended to the original volume of 14 mL. This was repeated three times and the final pellet was resuspended to 14 with PBS. Next, 90 μl of the cell suspension was pipetted into all wells of a conical bottom 96-well plate. […] The absorbance of the plate was taken at 415 nm using a Spectramax M5 multimode plate reader. By using the absorbance of each well compared to the wells without additive and those with Triton-X 100 a percentage of hemolysis was calculated. […]
Hemolytic activity of venom peptides and, more broadly AMPS in general, has often been a first approximation toward assessing potential for further development. […] The peptides we co-incubated with freshly isolated ovine red blood cells and peptide-induced hemolysis was determined by comparing hemoglobin leakage from treated cells to that of untreated cells as well as cells treated with the detergent Triton X-100 as a positive control.

As to LLKELWTKMKGAGKALLGKLKGLL [L1L], the Inner membrane permeabilization entry in data set [1] is listed as “exhibited any inner membrane permeabilizing activity”. In data set [2], the “Acrylamide quenching Ksv, PCPG” value was found to be 3.51 ± 0.17 M⁻¹; the “Acrylamide quenching Ksv, PEPG” value turned out to be 2.22 ± 4.04 M⁻¹; the “Acrylamide quenching Ksv, PC” value was 4.08 ± 2.10 M⁻¹; the “Acrylamide quenching Ksv, PC/Chol” value turned out to be 8.92 ± 0.94 M⁻¹. The “Acrylamide quenching Ksv, PBS” value in data set [2] was determined as 4.26 ± 0.97 M⁻¹. Besides, in data set [3], the Hemolysis result was “do not cross the threshold for inducing hemolytic activity”.

FFKEFWTKMKGAGKAFFGKFKGFF [L1F]: the Inner membrane permeabilization entry in data set [1] is “exhibited any inner membrane permeabilizing activity”. In data set [2], the “Acrylamide quenching Ksv, PCPG” value is 2.06 ± 0.97 M⁻¹; the “Acrylamide quenching Ksv, PEPG” value came out at 1.80 ± 0.77 M⁻¹; the “Acrylamide quenching Ksv, PC” value was found to be 1.57 ± 3.49 M⁻¹; the “Acrylamide quenching Ksv, PC/Chol” value was determined as 1.63 ± 0.20 M⁻¹. Further, the “Acrylamide quenching Ksv, PBS” value in data set [2] came to 4.18 ± 4.79 M⁻¹. In data set [3], the Hemolysis entry is “do not cross the threshold for inducing hemolytic activity”.
